Results on 19 compounds are retold here after ChEMBL document CHEMBL1129407, “Synthesis and evaluation of heterocyclic carboxamides as potential antipsychotic agents” (J Med Chem, 1996).

Test [1] has as its target T1, 5-hydroxytryptamine receptor 1A (Mus musculus, UniProt Q64264).
T1 sequence (Q64264 whole entry): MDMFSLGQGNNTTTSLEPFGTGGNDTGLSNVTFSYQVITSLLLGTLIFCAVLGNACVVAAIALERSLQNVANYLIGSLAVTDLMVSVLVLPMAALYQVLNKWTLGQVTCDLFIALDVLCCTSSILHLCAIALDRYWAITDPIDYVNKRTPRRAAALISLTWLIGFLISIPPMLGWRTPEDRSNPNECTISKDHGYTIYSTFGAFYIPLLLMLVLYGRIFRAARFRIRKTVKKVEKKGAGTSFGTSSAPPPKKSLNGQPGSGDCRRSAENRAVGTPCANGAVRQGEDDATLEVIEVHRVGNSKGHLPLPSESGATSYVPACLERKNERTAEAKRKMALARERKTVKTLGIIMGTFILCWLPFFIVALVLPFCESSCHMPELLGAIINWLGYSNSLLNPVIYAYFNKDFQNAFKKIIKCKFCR
Put plainly: Inhibitory activity against serotonin 5-hydroxytryptamine 1A receptor from mice.

The target of test [2] is T2, D(2) dopamine receptor (Mus musculus, UniProt P61168). Put plainly: Inhibition of mouse Dopamine receptor D2.
T2 sequence (P61168 whole entry): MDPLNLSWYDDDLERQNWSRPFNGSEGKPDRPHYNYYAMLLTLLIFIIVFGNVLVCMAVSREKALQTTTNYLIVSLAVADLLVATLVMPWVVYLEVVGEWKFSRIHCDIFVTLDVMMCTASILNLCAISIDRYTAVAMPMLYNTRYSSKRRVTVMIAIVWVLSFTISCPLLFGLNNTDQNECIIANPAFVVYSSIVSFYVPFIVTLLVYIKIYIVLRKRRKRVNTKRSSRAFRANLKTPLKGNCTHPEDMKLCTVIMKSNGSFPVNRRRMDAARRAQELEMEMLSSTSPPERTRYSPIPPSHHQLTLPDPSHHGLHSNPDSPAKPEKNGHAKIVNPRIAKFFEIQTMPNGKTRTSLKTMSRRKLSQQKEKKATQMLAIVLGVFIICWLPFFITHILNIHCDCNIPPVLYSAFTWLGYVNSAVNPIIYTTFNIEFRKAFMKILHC
Test [3] deals with Mus musculus. Briefly: Compound was tested for antagonist activity against apomorphine-induced mouse stereotypy(per orally - po). using in vivo method. Type of test: functional.
For test [4], the species on record is Mus musculus. Briefly: Compound was tested for induction of catalepsy in mouse. Type of test: functional.
The test system of test [5] is Mus musculus. Briefly: Compound was tested for antagonist activity against apomorphine-induced mouse climbing(intraperitoneally - ip). using in vivo method. Type of test: functional.
The subject of test [6] is Mus musculus. Put plainly: Compound was tested for antagonist activity against apomorphine-induced mouse climbing(per orally - po). using in vivo method. Type of test: functional.
For test [7], the target named is Serotonin 2 (5-HT2) receptor (Mus musculus, UniProt Q02152+P34968+P35363). Put plainly: Inhibitory activity against serotonin 5-hydroxytryptamine 2 receptor from mice. Type of test: protein assay.
For test [8], the system named is Mus musculus. Put plainly: Compound was tested for antagonist activity against apomorphine-induced mouse climbing (ip). using in vivo method. Type of test: functional.
Test [9] deals with Mus musculus. Put plainly: Compound was tested for antagonist activity against apomorphine-induced mouse climbing (po). using in vivo method. Type of test: functional.
Test [10] has as its target T2, D(2) dopamine receptor. Put plainly: Inhibitory activity against Dopamine receptor D2 from mice.
The species entered for test [11] is Mus musculus. Put plainly: Compound was tested for induction of catalepsy in mouse. Type of test: functional.
The subject of test [12] is Mus musculus. Put plainly: Compound was tested for antagonist activity against apomorphine-induced mouse stereotypy (po) using in vivo method. Type of test: functional.
Test [13] in a line: Ratio of ED50 for induction of catalepsy to ED50 for antagonism of apomorphine-induced climbing. Type of test: functional.
Test [14] in a line: Ratio of ED50 for antagonism of apomorphine induced stereotypy to ED50 for antagonism of apomorphine-induced climbing. Type of test: functional.
Test [15] concerns Mus musculus. Briefly: Compound was tested for antagonist activity against apomorphine-induced mouse climbing (po) using in vivo method. Type of test: functional.
The subject of test [16] is Mus musculus. Briefly: Compound was tested for antagonist activity against apomorphine-induced mouse climbing (ip) using in vivo method. Type of test: functional.

pIC50: −log10 of the molar value. Where only a bound is given, the exact number is not on record here.

What is called pIC50 is the IC50 on a negative log10 scale, so that one unit is a factor of ten. The low end stands for a high IC50, the high end for a low IC50. In general, ED50 refers to the midpoint of the dose-response relation. `Cc1nc2n(c(=O)c1CCN1CCC(c3noc4cc(F)ccc34)CC1)CCCC2` [RISPERIDONE]: the pIC50 in test [1] was 6.37; at D(2) dopamine receptor [2], 7.64. The ED50 in the test with Mus musculus [3] was 3.2 mg/kg; in the test listed under Mus musculus [4], 1.4 mg/kg; in the test with Mus musculus [5], 0.3 mg/kg; in the test with Mus musculus [6], 0.9 mg/kg.
One may read the IC50 as the concentration that gives 50% inhibition. Low readings indicate greater potency, high ones weaker potency. As to `Nc1c(C(=O)NCCCCN2CCN(c3nsc4ccccc34)CC2)sc2ccccc12`, the pIC50 (in test [1]; at D(2) dopamine receptor [2]) was 8.24 in each case. The compound further yielded an IC50 in test [7] of 0.85 nM. Besides, the 50% effective dose (ED50) with Mus musculus [8] stood at 2.2 mg/kg; in the test on Mus musculus [9], 51.6 mg/kg.
Regarding `O=C(NCCCCN1CCN(c2nsc3ccccc23)CC1)c1cccc2c1NCCC2`, the figures for the pIC50 (in [1]; on D(2) dopamine receptor [2]) were 8.72 and 7.55, respectively. Further, the IC50 in [7] was determined as 2.4 nM. For the same compound, in the test with Mus musculus [8], the ED50 is less than 25 mg/kg.
With `Nc1ccncc1C(=O)NCCCCN1CCN(c2nsc3ccccc23)CC1`, the negative logarithm of the IC50 (pIC50) was 8.29 in test [1] and 8.33 against D(2) dopamine receptor [10]. This compound showed an IC50 in [7] of 3.1 nM. In the test on Mus musculus [8], this compound had an ED50 greater than 25 mg/kg.
Consider `Nc1ccsc1C(=O)NCCCCN1CCN(c2nsc3ccccc23)CC1`, for which the results for the pIC50 (in test [1]; against D(2) dopamine receptor [2]) were 8.89 and 8.02, respectively. Moreover, the IC50 in [7] stood at 1.3 nM. The ED50 in the test listed under Mus musculus [11] was determined as 69.3 mg/kg; in the test with Mus musculus [12] it was 57.9 mg/kg; in the test on Mus musculus [8], 0.9 mg/kg; with Mus musculus [9] it was 9.7 mg/kg. Also, the Ratio in [13] was found to be 7; in [14] it was 6.
For the compound `O=C(NCCCCN1CCN(c2nsc3ccccc23)CC1)c1[nH]nc2ccccc12`, the pIC50 was 8.44 in test [1] and 8.66 on D(2) dopamine receptor [2]. For the same compound, the IC50 in [7] was 0.35 nM. Besides, the ED50 in the test with Mus musculus [8] was less than 25 mg/kg; in the test with Mus musculus [9] it was 31.8 mg/kg.
Consider `Nc1cnccc1C(=O)NCCCCN1CCN(c2nsc3ccccc23)CC1`, for which the pIC50 in test [1] was 8.15. In test [7], the IC50 was determined as 1.5 nM.
Take `O=C(NCCCCN1CCN(c2nsc3ccccc23)CC1)c1cccc2cccnc12`: the results for the pIC50 (in test [1]; on D(2) dopamine receptor [10]) were 8.37 and 7.85, respectively. The compound also showed an IC50 in test [7] of 2.4 nM. For the same compound, the results for the ED50 in the test on Mus musculus [8] and in the test with Mus musculus [9] were less than 25 mg/kg and 54.4 mg/kg, respectively.
Regarding `O=C(NCCCCN1CCN(c2nsc3ccccc23)CC1)c1ccccn1`, the values for the pIC50 (in test [1]; against D(2) dopamine receptor [2]) were 8.55 and 7.62, respectively. The IC50 in [7] came out at 1.5 nM. Moreover, the median effective dose (ED50) was less than 25 mg/kg with Mus musculus [5] and 16.6 mg/kg with Mus musculus [6].
For the compound `Nc1cccnc1C(=O)NCCCCN1CCN(c2nsc3ccccc23)CC1`, the pIC50 in test [1] is 8.42. Further, the half-maximal inhibitory concentration (IC50) in test [7] is given as 8.3 nM.
Consider `O=C(NCCCCN1CCN(c2nsc3ccccc23)CC1)c1cccc2c1NCC2`, for which the pIC50 is 8.37 in test [1] and 7.47 at D(2) dopamine receptor [2]. The IC50 in [7] is 3.4 nM. Also, the figures for the ED50 with Mus musculus [8] and in the test on Mus musculus [9] were 2.6 mg/kg and 18.6 mg/kg, respectively.
As to `O=C(NCCCCN1CCN(c2nsc3ccccc23)CC1)c1cccnc1`, the pIC50 in test [1] is 8.31; on D(2) dopamine receptor [2], 7.33. In addition, the IC50 in test [7] was found to be 2.9 nM. Besides, the ED50 came to 5.2 mg/kg in the test with Mus musculus [8] and 15.5 mg/kg in the test on Mus musculus [9].
Take `O=C(NCCCCN1CCN(c2nsc3ccccc23)CC1)c1ccncc1`: the pIC50 in [1] is 8.18; at D(2) dopamine receptor [10] it was 7.60. This compound had an IC50 in [7] of 2.3 nM. Also, the ED50 in the test with Mus musculus [15] amounted to 34 mg/kg; in the test with Mus musculus [16] it was 4.6 mg/kg.
As to `O=C(NCCCCN1CCN(c2nsc3ccccc23)CC1)c1cccc2cc[nH]c12`, the pIC50 in test [1] was 8.57; against D(2) dopamine receptor [2] it was 7.55. The same compound yielded a concentration for half-maximal inhibition (IC50) in test [7] of 1.2 nM.
As for `Nc1sccc1C(=O)NCCCCN1CCN(c2nsc3ccccc23)CC1`, the pIC50 in [1] was 8.70; against D(2) dopamine receptor [10] it was 7.96. The same compound showed an IC50 in [7] of 2.3 nM. In addition, the ED50 with Mus musculus [8] was 4.8 mg/kg; with Mus musculus [9], greater than 25 mg/kg.
Turning to `Nc1cscc1C(=O)NCCCCN1CCN(c2nsc3ccccc23)CC1`, the values for the pIC50 (in [1]; against D(2) dopamine receptor [2]) were 8.46 and 8.22, respectively. In test [7], this compound had an IC50 of 2.5 nM. The ED50 in the test with Mus musculus [8] turned out to be 1.7 mg/kg; in the test with Mus musculus [9], 12.6 mg/kg.
The corresponding values for `Nc1ncccc1C(=O)NCCCCN1CCN(c2nsc3ccccc23)CC1` are 8.48, 8.11, 1.5 nM, 6.4 mg/kg and 17.1 mg/kg.
Consider `O=C(NCCCCN1CCN(c2nsc3ccccc23)CC1)c1c[nH]c2ccccc12`, for which the pIC50 in [1] was 8.24; on D(2) dopamine receptor [10], 7.85. The compound further returned an IC50 in test [7] of 1.3 nM. In addition, the ED50 in the test with Mus musculus [8] is greater than 25 mg/kg.
As for `O=C(NCCCCN1CCN(c2nsc3ccccc23)CC1)c1cccc2[nH]cnc12`, the results for the pIC50 (in test [1]; against D(2) dopamine receptor [10]) were 8.38 and 8.12, respectively. In [7], this compound came in with an IC50 of 0.29 nM. The ED50 with Mus musculus [8] was greater than 25 mg/kg.
